# Assay results as given in ChEMBL document CHEMBL5154826, “Discovery of the Clinical Candidate MAK683: An EED-Directed, Allosteric, and Selective PRC2 Inhibitor for the Treatment of Advanced Malignancies” (J Med Chem, 2022).
# Tests used:
# [1] = Inhibition of PRC2 (unknown origin) assessed as reduction in H3K27 trimethylation using H3K27Me0 peptide (21 to 44 residues) as substrate by measuring SAH formation by LC-MS analysis; parameters: species or system Homo sapiens
# Cytochrome P450 2C9 = Cytochrome P450 2C9 (Homo sapiens, UniProt P11712); assay: Inhibition of CYP2C9 in human liver microsomes using diclofenac as substrate incubated for 10 mins in presence of NADPH by LC-MS/MS analysis; type: ADME, Microsome
# [2] = High throughput solubility of the compound in SGF after 16 to 24 hrs by MS/MS analysis; type: physicochemical; details: time 16-24 hrs
# [3] = High throughput solubility of the compound in FaSSIF after 16 to 24 hrs by MS/MS analysis; type: physicochemical; details: time 16-24 hrs
# [4] = Antitumor activity against human Karpas-422 cells xenografted Athymic BALB/c nude mouse assessed as inhibition of tumor growth at 30 mg/kg, po bid, for 33 days; type: functional; parameters: scale not given: the % may be the effect or the level left; details: time 33 day
# [5] = Antitumor activity against human Karpas-422 cells xenografted Athymic BALB/c nude mouse assessed as inhibition of tumor growth at 100 mg/kg, po for 26 days; type: functional; parameters: scale not given: the % may be the effect or the level left; details: time 26 day
# [6] = In vivo inhibition of PRC2 in PBMC collected from human Karpas-422 cells xenografted Athymic NTac:NIH-Whn nude rat assessed as reduction in H3K27me3 level at 30 mg/kg, po, qd for 42 days measured after 4 hrs of last dose by FACS method; type: functional; parameters: scale not given: the % may be the effect or the level left; details: time 42 day
# [7] = Toxicity in Athymic NTac:NIH-Whn nude rat xenografted with human Karpas-422 cells assessed as reduction in body weight at 0.3 to 30 mg/kg, po, qd measured upto 140 days; type: organism-based; details: in vivo, 3360 h, dose 0.3-30 mg/kg, time < 140 day
# [8] = Volume of distribution at steady state ICR (CD-1) mouse at 2 mg/kg, po or 1 mg/kg, iv after 1 week by LC-MS/MS analysis; type: ADME, organism-based; details: in vivo, 168 h, time 1 weeks
# [9] = Volume of distribution at steady state in Sprague-Dawley rat at 2 mg/kg, po or 1 mg/kg, iv after 1 week by LC-MS/MS analysis; type: ADME, organism-based; details: in vivo, 168 h, time 1 weeks
# [10] = Terminal half life in ICR (CD-1) mouse at 2 mg/kg, po or 1 mg/kg, iv after 1 week by LC-MS/MS analysis; type: ADME, organism-based; details: in vivo, time 1 weeks, read-out: beta t1/2 (converted)
# [11] = Dose normalized AUC in Sprague-Dawley rat at 2 mg/kg, po or 1 mg/kg, iv after 1 week by LC-MS/MS analysis; type: ADME, organism-based; details: in vivo, 168 h, time 1 weeks
# [12] = Dose normalized AUC in wild type Beagle dog at 2 mg/kg, po or 1 mg/kg, iv after 1 week by LC-MS/MS analysis; type: ADME, organism-based, Canis lupus familiaris; details: in vivo, 168 h, time 1 weeks
# [13] = Dose normalized Cmax in ICR (CD-1) mouse at 2 mg/kg, po or 1 mg/kg, iv after 1 week by LC-MS/MS analysis; type: ADME, organism-based; details: in vivo, 168 h, time 1 weeks
# [14] = Dose normalized Cmax in Sprague-Dawley rat at 2 mg/kg, po or 1 mg/kg, iv after 1 week by LC-MS/MS analysis; type: ADME, organism-based; details: in vivo, 168 h, time 1 weeks
# [15] = Metabolic stability in rat microsomes assessed as intrinsic clearance; type: ADME, Microsome; details: read-out: CLH
# [16] = Metabolic stability in dog microsomes assessed as intrinsic clearance; type: ADME, Canis lupus familiaris, Microsome; details: read-out: CLH
# [17] = Plasma clearance in mouse assessed as hepatic extraction; type: ADME, cell-free; details: read-out: ERH
# [18] = Plasma clearance in dog assessed as hepatic extraction; type: ADME, cell-free, Canis lupus familiaris; details: read-out: ERH
# [19] = Plasma protein binding in mouse at 1 uM measured after 6 hrs LC-MS/MS analysis; type: ADME, cell-free; details: read-out: PPB (converted)
# [20] = Ratio of drug level in human blood to plasma; type: ADME, cell-free; details: whole blood
# [21] = High throughput solubility of the compound at pH 4 after 16 to 24 hrs by MS/MS analysis; type: physicochemical; details: buffer, time 16-24 hrs
# [22] = target: T1, Alpha-2A adrenergic receptor (Homo sapiens, UniProt P08913); assay: Agonist activity at adrenergic receptor alpha2a (unknown origin); type: functional
# T1 sequence (P08913 whole entry): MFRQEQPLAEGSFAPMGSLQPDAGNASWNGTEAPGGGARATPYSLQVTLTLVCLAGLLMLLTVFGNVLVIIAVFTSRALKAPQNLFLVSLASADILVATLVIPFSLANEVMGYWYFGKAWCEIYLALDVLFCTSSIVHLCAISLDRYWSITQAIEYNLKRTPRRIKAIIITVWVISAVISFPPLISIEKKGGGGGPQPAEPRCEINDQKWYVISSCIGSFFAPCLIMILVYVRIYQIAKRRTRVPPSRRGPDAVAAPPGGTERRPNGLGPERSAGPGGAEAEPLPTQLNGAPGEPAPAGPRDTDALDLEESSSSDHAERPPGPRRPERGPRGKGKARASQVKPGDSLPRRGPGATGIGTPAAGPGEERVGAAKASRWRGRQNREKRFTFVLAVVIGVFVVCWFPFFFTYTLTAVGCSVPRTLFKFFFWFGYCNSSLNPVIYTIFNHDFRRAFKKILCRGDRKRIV
# [23] = target: T2, Muscarinic acetylcholine receptor M2 (Homo sapiens, UniProt P08172); assay: Agonist activity at muscarinic M2 receptor (unknown origin); type: functional
# T2 sequence (P08172 whole entry): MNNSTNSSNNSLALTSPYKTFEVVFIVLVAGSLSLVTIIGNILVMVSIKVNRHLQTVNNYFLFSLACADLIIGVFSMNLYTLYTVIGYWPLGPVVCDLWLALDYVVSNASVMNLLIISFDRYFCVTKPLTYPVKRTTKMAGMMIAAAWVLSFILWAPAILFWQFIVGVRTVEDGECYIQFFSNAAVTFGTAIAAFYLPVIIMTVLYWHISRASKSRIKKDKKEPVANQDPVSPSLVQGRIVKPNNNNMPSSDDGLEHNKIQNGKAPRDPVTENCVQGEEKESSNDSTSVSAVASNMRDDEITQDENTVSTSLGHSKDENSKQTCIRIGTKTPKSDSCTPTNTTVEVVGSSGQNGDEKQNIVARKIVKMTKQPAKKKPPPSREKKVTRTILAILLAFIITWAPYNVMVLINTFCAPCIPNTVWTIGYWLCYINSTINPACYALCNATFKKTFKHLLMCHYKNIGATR
# Cytochrome P450 2D6 = Cytochrome P450 2D6 (Homo sapiens, UniProt P10635); assay: Inhibition of CYP2D6 human liver microsomes using bufuralol as substrate incubated for 15 mins by LC-MS/MS analysis; type: ADME, Microsome
# [24] = Drugmetabolism in human hepatocytes assessed as metabolite formation; type: ADME, cell-based, Hepatocyte
# [25] = Drugmetabolism in rat hepatocytes assessed as CYP3A4 mediated metabolite formation; type: ADME, cell-based, Hepatocyte
# [26] = Drugmetabolism in dog hepatocytes assessed as CYP3A4 mediated metabolite formation; type: ADME, cell-based, Canis lupus familiaris, Hepatocyte
# [27] = Drug metabolism in bile duct cannulated Wistar Han rat assessed as parent compound recovery in bile at 3 mg/kg, iv after 8 hrs by LC-MS/MS analysis; type: ADME, organism-based; details: read-out: Drug metabolism
# [28] = Drug metabolism in bile duct cannulated Wistar Han rat assessed as parent compound recovery in urine at 3 mg/kg, iv after 8 hrs by LC-MS/MS analysis; type: ADME, organism-based; details: read-out: Drug metabolism
# cells = details: Homo sapiens, G-401, 48 h
# Description: Inhibition of PRC2 in human G-401 cells assessed as H3K27 methylation status incubated for 48 hrs by ELISA method
# Sequence of Cytochrome P450 2C9 (P11712 whole entry): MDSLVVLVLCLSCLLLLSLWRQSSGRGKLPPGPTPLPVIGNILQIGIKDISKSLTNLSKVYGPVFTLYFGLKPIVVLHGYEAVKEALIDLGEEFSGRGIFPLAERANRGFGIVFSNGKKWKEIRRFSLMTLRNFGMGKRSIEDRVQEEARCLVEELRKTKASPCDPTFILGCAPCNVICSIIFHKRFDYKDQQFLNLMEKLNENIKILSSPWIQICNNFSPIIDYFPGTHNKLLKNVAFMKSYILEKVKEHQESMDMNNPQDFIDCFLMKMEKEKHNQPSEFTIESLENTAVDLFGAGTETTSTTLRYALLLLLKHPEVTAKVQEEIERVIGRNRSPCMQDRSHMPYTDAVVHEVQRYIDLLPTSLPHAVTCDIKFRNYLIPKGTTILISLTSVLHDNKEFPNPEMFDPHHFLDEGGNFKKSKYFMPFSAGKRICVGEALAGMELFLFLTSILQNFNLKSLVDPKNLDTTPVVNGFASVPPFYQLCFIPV
# Sequence of Cytochrome P450 2D6 (P10635 whole entry): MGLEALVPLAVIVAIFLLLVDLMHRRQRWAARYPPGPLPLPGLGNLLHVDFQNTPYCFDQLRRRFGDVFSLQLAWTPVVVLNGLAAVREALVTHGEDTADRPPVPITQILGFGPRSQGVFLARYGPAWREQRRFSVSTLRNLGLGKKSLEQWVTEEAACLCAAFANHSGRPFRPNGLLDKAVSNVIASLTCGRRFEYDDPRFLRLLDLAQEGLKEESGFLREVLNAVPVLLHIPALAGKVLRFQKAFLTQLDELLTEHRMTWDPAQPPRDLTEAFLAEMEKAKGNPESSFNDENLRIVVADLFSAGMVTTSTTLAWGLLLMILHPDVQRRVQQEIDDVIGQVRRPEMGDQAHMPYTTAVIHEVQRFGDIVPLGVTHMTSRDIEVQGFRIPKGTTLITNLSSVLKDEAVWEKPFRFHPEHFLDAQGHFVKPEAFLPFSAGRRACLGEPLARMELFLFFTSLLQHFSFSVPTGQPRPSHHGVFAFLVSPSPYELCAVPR
smiles,measurement,setting,value
Cc1ncccc1-c1cnc(NCc2c(F)ccc3c2CCO3)n2cnnc12,IC50,[1],9 µM
same,IC50,Cytochrome P450 2C9,> 20 µM
same,solubility,[2],8740 µM
same,solubility,[3],25 µM
same,Activity,[4],100%
same,Activity,[5],100%
same,Activity,[6],93%
same,Activity,[7],Non-Toxic
same,Vdss,[8],3.5 L/kg
same,Vdss,[9],2 L/kg
same,half-life,[10],1.5 h
same,AUC/dose,[11],2939 nM·h
same,AUC/dose,[12],2093 nM·h
same,Cmax/dose,[13],356 nM
same,Cmax/dose,[14],427 nM
same,microsomal CLint,[15],22 µL/min/mg
same,microsomal CLint,[16],91 µL/min/mg
same,hepatic extraction ratio,[17],0.42
same,hepatic extraction ratio,[18],0.35
same,"fraction unbound at 6 h, 1 µM",[19],0.15
same,blood plasma ratio,[20],0.78
same,solubility,[21],266 µM
same,IC50,[22],9.6 µM
same,IC50,[23],8.9 µM
same,IC50,Cytochrome P450 2D6,> 18 µM
same,Drug metabolism,[24],Metabolite_Notdetected
same,Drug metabolism,[25],Metabolite_Detected
same,Drug metabolism,[26],Metabolite_Detected
same,dose excreted at 8 h,[27],0.3%
same,dose excreted at 8 h,[28],0.5%
same,IC50,cells,3 µM
